Measurements: US7351546B2, “Flow cytometric, whole blood dendritic cell immune function assay” (Becton, Dickinson and Company, priority 1998, dated 2008)
Entries after “also recorded” stand apart in the source; their conditions may differ.

What was measured:
Format in all cases: cell-based, human
CD11c^− DCs = settings: CD11c− subset; whole blood; activator 4 hours at 37° C. without Brefeldin A
Method: (§1) Venous blood of normal donors was collected in sodium heparin […]® tubes. For activation with LPS, the blood was stimulated with 1 μg/mL LPS. […] PMA was then added at 5 ng/mL and ionomycin at 1 μg/mL. For activation by CD40 crosslinking, 50 μL CD40-coated polystyrene beads was added to 1 mL whole blood. All samples were incubated for four hours at 37° C. in a humidified incubator with 5% CO2.
For detection of changes in surface antigen expression, samples were incubated with DC activator, as above, without the further addition of BFA. Control (resting) aliquots were incubated with neither BFA nor activator.
Cell preparation was done at room temperature (RT) and all incubation steps were performed in the dark.
For staining, 150 μL of sample (activated or resting blood control) was added to a cocktail of monoclonal antibodies in a staining tube.
After incubation, 3 mL of FACS® Lysing Solution was added and the tube incubated for 10 min at RT. The lysed cells were centrifuged for 5 min at 500×g and subsequently washed with 3 mL buffer (DPBS 1×, 0.5% fetal calf serum). The cell pellet was resuspended in 250 μL buffer and immediately acquired on a flow cytometer. If data acquisition was delayed, the cells were maintained at 4° C. for up to one hour.
The samples as described above were acquired on a FACSCalibur™ dual laser flow cytometer (BDIS, San Jose, Calif.). […]

CD11c^+ DCs = test: Cytokine kinetic assay in LPS activated CD11c+ DCs; settings: 1 μg/ml LPS, time course 0 to 8 hours
Method: The time course of LPS incubation was 0 to 8 hours. Intracellular cytokine and CD80 expression is measured as PE mean fluorescence intensity (MFI).
Whole blood was stimulated with 1 μg/ml LPS and incubated in polypropylene tubes (12×75 mm) at 37° C. in a humidified atmosphere containing 5% CO2. Aliquots were processed, essentially as set forth in Examples 1 and 2 above, every hour from 0 to 8 hrs post stimulation. One hour prior to each sample harvest, BFA was added at 10 μg/mL.

CD11c^+CD123^low DCs = settings: CD11c+ subset; whole blood; activator 4 hours at 37° C. with Brefeldin A
Method: as §1
(§2) For detection of intracellular cytokines, activation, as above, was performed in the presence additionally of Brefeldin A (BFA) at 10 μg/mL. Control (resting) aliquots were incubated with BFA alone.
(§3) Cell preparation was done at room temperature (RT), and all incubation steps were performed in the dark.
(§4) For staining, 1 mL of sample (activated or resting blood control) was added to a cocktail of dendritic cell-distinguishing antibodies (20 μL lineage cocktail 1-FITC, 10 μL HLA-DR PerCP, 5 μL CD11c APC; reagent volumes per 50 μL blood) in a 50 mL polypropylene centrifuge tube. The blood was incubated in the presence of the fluorophore-conjugated antibodies for 15 min. After incubation, 40 mL FACS® Lysing Solution was added and the tube incubated for a further 10 min. The cells were then collected by centrifugation for 10 min at 500×g, and the pellet gently broken off for further processing. Next, 10 mL FACS® Permeabilizing Solution was added and the cells were incubated for 10 min. […]

CD11c^−CD123^+ DCs = settings: CD11c−CD123+ subset; whole blood
Method: as §1, §2, §3, §4

monocytes = settings: activated whole blood with BFA
Method: The cytokine expression of monocytes was evaluated in some of the same samples. Monocytes were identified based on their scatter characteristics, their bright lin 1 FITC, anti-HLA-DR PerCP and CD11c APC staining. […] Intracellular protein secretion is evaluated as PE mean fluorescence intensity (MFI).

Lipopolysaccharide [LPS]
CD80 change in surface expression (ratio of MFI activated versus control) (CD11c^− DCs): upregulation; also recorded: strongest signal
CD86 change in surface expression (ratio of MFI activated versus control) (CD11c^− DCs): upregulation
order of cytokine production (kinetics of the response) (CD11c^+ DCs): TNFα is produced first, followed by IL-1β and IL-6
time of activation after which CD80 is intensely upregulated (CD11c^+ DCs): about 4 hours
IL-12 expression (intracellular, MFI) (CD11c^+CD123^low DCs): trace levels
production of any of the tested cytokines (CD11c^−CD123^+ DCs): absence of detectable cytokine production; also recorded: fail to respond
cytokine expression of monocytes compared with CD11c+ DCs (PE MFI) (monocytes): higher levels; also recorded: much more potently
